Assays:
Faecalibacterium = Faecalibacterium proliferative effect in vivo: cell number in feces of infants by real-time PCR; design: species or system human (infants); conditions: for mean number of cells of Faecalibacterium (log10) / mean number of cells of Faecalibacterium per g feces: infants, oral, daily 1-3 g; for Significant difference (vs 0 week): Wilcoxon signed rank test; for cell number of Faecalibacterium over study period (in words): 12-week study
Excerpt: 58 infants from 6 months old to 6 years old were divided into 2 groups of 29 infants and they were designated 1-Kestose Group and Maltose Group. 1-Kestose Group took 1-kestose (purity 98% by mass or more, B Food Science Co., Ltd.) orally and Maltose Group took maltose (purity of 92% by mass or more, “Sunmalt-S” powder, Sanwa Starch Co., Ltd.) orally every day during the study period. The test period was 12 weeks. The daily intake of 1-kestose or maltose was 1 g (estimated intake; 0.121 g/kg body weight/day) for infants under 1 year old, 2 g (estimated intake; 0.169 g/kg body weight/day) for infants from 1 to 3 years old, and 3 g (estimated intake; 0.170 g/kg body weight/day) for infants from 4 to 6 years old. […] The estimated intake mentioned above was calculated based on the age-specific body weight data published in “2010 National growth survey on preschool children of the Ministry of Health, Labour and Welfare”. More specifically, the male and female medians were separately calculated from the minimums and the maximums of the body weight data within the age ranges of the study participants of Example 2 and the means of the medians were calculated. Subsequently, the male and female means of the means of the medians were calculated as estimated body weights. The estimated body weights were 8.26 kg for under 1 year old, 11.85 kg for 1 to 3 years old, and 17.62 kg for 4 to 6 years old. […] The numbers of cells of Faecalibacterium in the recovered feces were quantified by real-time PCR. Specifically, genomic DNA was first extracted from the feces using the reagent for genome extraction “Ultra Clean Soil DNA Isolation Kit” (Mo Bio Laboratories Inc.) and “High Pure PCR Template Preparation Kit” (Roche). […] The standard curve was generated based on the result of real-time PCR performed under the same conditions using genomic DNA extracted in the same way from Faecalibacterium prausnitzii strain ATCC27768 strain cultured in pure culture and counted under a microscope. The mean of cell numbers was calculated for each group.

[1] = tested on: Faecalibacterium prausnitzii strain ATCC27768; assay: Faecalibacterium proliferative effect in vitro: culture turbidity with oligosaccharide added; type: cell-based; conditions: for turbidity (OD value) at 660 nm: oligosaccharide 5.0 g/L, 37° C., anaerobic
Method: Liquid media of the following composition was prepared sterile. 1-Kestose (purity of 99% by mass, B Food Science Co., Ltd.), nystose (purity of 98% by mass, Wako Pure Chemical Industries, Ltd.), xylooligosaccharide (purity of 99% by mass, B Food Science Co., Ltd.), raffinose (purity of 98% by mass, Meiji Food Materia Co., Ltd.) and lactosucrose (purity of 89% by mass, Ensuiko Sugar Refining Co., Ltd.) were used as oligosaccharides. Moreover, a liquid medium of the following composition with no oligosaccharide was also prepared as a control.
[Composition of Liquid Medium/Per L] (Final pH: 7.0)
Casein digest 15.0 g, yeast extract 5.0 g, L-cystine 0.5 g, sodium chloride 2.5 g, thioglycolic acid 0.5 g, tryptophan 25 mg, hemin proper quantity, vitamin K1 proper quantity, oligosaccharide 5.0 g.
A prepared liquid medium was inoculated with Faecalibacterium prausnitzii strain ATCC27768 precultured until confluent to a turbidity with an OD (Optical Density) value at 660 nm of 0.05 to 0.06. The inoculated culture was cultured statically at 37° C. in anaerobic environment and the turbidity (OD value) at 660 nm was measured with a spectrophotometer 24 hours, 48 hours, and 72 hours later. Moreover, the relation between OD value and the duration of culture is illustrated in a line graph of FIG. 1. Moreover, OD values at a duration of time of 72 hours are illustrated in a bar graph of FIG. 2.

OC[C@H]1O[C@H](O[C@H]2[C@H](O)[C@@H](O)C(O)O[C@@H]2CO)[C@H](O)[C@@H](O)[C@@H]1O (mixture of isomers) [Maltose, maltose]
mean number of cells of Faecalibacterium (log10) (Faecalibacterium; 0 week): 6.88 cells log10/g feces
mean number of cells of Faecalibacterium per g feces (Faecalibacterium; 0 week): 7.6 × 10^6 cells/g feces
change of cell number from 0 weeks (in words) (Faecalibacterium; 6 weeks): slightly decreased
Significant difference (vs 0 week) (Faecalibacterium; 6 weeks): Not found
mean number of cells of Faecalibacterium (log10) (Faecalibacterium; 6 weeks): 6.77 cells log10/g feces
mean number of cells of Faecalibacterium per g feces (Faecalibacterium; 6 weeks): 5.8 × 10^6 cells/g feces
cell number of Faecalibacterium over study period (in words) (Faecalibacterium): did not increase
change of cell number from 0 weeks (in words) (Faecalibacterium; 12 weeks): slightly increased
Significant difference (vs 0 week) (Faecalibacterium; 12 weeks): Not found
mean number of cells of Faecalibacterium (log10) (Faecalibacterium; 12 weeks): 7.12 cells log10/g feces
mean number of cells of Faecalibacterium per g feces (Faecalibacterium; 12 weeks): 1.3 × 10^7 cells/g feces

OC[C@H]1O[C@@](CO)(OC[C@@]2(O[C@H]3O[C@H](CO)[C@@H](O)[C@H](O)[C@H]3O)O[C@H](CO)[C@@H](O)[C@@H]2O)[C@@H](O)[C@@H]1O [1-kestose]
mean number of cells of Faecalibacterium (log10) (Faecalibacterium; 0 week): 6.57 cells log10/g feces
mean number of cells of Faecalibacterium per g feces (Faecalibacterium; 0 week): 3.7 × 10^6 cells/g feces
increase of cell number from 0 weeks (Faecalibacterium; 6 weeks): ≥ 3.5 times
Significant difference (vs 0 week) (Faecalibacterium; 6 weeks): Not found
mean number of cells of Faecalibacterium (log10) (Faecalibacterium; 6 weeks): 7.16 cells log10/g feces
mean number of cells of Faecalibacterium per g feces (Faecalibacterium; 6 weeks): 1.4 × 10^7 cells/g feces
cell number of Faecalibacterium over study period (in words) (Faecalibacterium): increased markedly
increase of cell number from 0 weeks (Faecalibacterium; 12 weeks): ≥ 9 times
Significant difference (vs 0 week) (Faecalibacterium; 12 weeks): Found
mean number of cells of Faecalibacterium (log10) (Faecalibacterium; 12 weeks): 7.54 cells log10/g feces
mean number of cells of Faecalibacterium per g feces (Faecalibacterium; 12 weeks): 3.5 × 10^7 cells/g feces
OD values versus control and other oligosaccharides (in words) ([1]; 24 hours, 48 hours and 72 hours): markedly greater
turbidity (OD value) at 660 nm ([1]; duration of culture 0 hour): 0.063
turbidity (OD value) at 660 nm ([1]; duration of culture 24 hours): 0.345
turbidity (OD value) at 660 nm ([1]; duration of culture 48 hours): 0.885
turbidity (OD value) at 660 nm ([1]; duration of culture 72 hours): 1.803

OC[C@H]1O[C@@H](O[C@H]2[C@H](O)[C@@H](O)[C@@H](O[C@]3(CO)O[C@H](CO)[C@@H](O)[C@@H]3O)O[C@@H]2CO)[C@H](O)[C@@H](O)[C@H]1O [Lactosucrose, lactosucrose]
turbidity (OD value) at 660 nm ([1]; duration of culture 0 hour): 0.055
turbidity (OD value) at 660 nm ([1]; duration of culture 24 hours): 0.298
turbidity (OD value) at 660 nm ([1]; duration of culture 48 hours): 0.448
turbidity (OD value) at 660 nm ([1]; duration of culture 72 hours): 0.295

OC[C@H]1O[C@@](CO)(OC[C@@]2(OC[C@@]3(O[C@H]4O[C@H](CO)[C@@H](O)[C@H](O)[C@H]4O)O[C@H](CO)[C@@H](O)[C@@H]3O)O[C@H](CO)[C@@H](O)[C@@H]2O)[C@@H](O)[C@@H]1O [Nystose, nystose]
turbidity (OD value) at 660 nm ([1]; duration of culture 0 hour): 0.063
turbidity (OD value) at 660 nm ([1]; duration of culture 24 hours): 0.290
turbidity (OD value) at 660 nm ([1]; duration of culture 48 hours): 0.443
turbidity (OD value) at 660 nm ([1]; duration of culture 72 hours): 0.305

OC[C@H]1O[C@H](OC[C@H]2O[C@H](O[C@]3(CO)O[C@H](CO)[C@@H](O)[C@@H]3O)[C@H](O)[C@@H](O)[C@@H]2O)[C@H](O)[C@@H](O)[C@H]1O [Raffinose, raffinose]
turbidity (OD value) at 660 nm ([1]; duration of culture 0 hour): 0.052
turbidity (OD value) at 660 nm ([1]; duration of culture 24 hours): 0.251
turbidity (OD value) at 660 nm ([1]; duration of culture 48 hours): 0.191
turbidity (OD value) at 660 nm ([1]; duration of culture 72 hours): 0.246
